Experimental data taken from article PMC4980415 (Psychopharmacology, 2016).
Where a name gives a salt, the structure may show the parent alone.

What was measured:
[1] = system: Alpha 1 (non-selective), adrenergic; assay: Off-target binding, General SEP II panel; conditions: 10 μM ITI-214, mean of n = 2
PDE1 (bovine brain) = assay: PDE activity IMAP assay, bovine brain PDE1; format: biochemical; conditions: Fl-cGMP substrate, CaCl2/calmodulin
H3 (h), histamine = target: T1, H3 (h), histamine (Homo sapiens, UniProt Q9Y5N1); assay: Off-target binding, General SEP II panel; conditions: 10 μM ITI-214, mean of n = 2
T1 construct: Caliper Life Sciences (contract screen)

B2 (H), bradykinin = target: T2, B2 (H), bradykinin (Homo sapiens, UniProt P30411); assay: Off-target binding, General SEP II panel; conditions: 10 μM ITI-214, mean of n = 2
T2 construct: Caliper Life Sciences (contract screen)
T2 sequence (P30411 1-391): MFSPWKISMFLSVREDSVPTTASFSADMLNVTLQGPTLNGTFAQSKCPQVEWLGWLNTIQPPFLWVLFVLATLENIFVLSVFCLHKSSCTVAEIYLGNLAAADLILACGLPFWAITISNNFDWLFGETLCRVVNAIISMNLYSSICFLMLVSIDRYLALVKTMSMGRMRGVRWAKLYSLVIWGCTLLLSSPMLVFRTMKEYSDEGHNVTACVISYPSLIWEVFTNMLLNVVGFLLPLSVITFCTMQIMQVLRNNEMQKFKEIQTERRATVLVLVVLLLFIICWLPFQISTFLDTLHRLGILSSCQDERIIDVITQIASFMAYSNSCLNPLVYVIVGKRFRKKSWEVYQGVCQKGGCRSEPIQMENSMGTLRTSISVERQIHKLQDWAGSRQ

[2] = target: T3, DA transporter (h), dopamine (Homo sapiens, UniProt Q01959); assay: Off-target binding, General SEP II panel; conditions: 10 μM ITI-214, mean of n = 2
T3 construct: Caliper Life Sciences (contract screen)

[3] = system: memory acquisition and retrieval in male Wistar rats; assay: Novel object recognition (NOR): suboptimal doses 2 h before T1 and T2; format: in vivo, rat
Protocol: The drug was administered, per os (po), by gavage to rats in a volume of 2 ml/kg body weight. Oral dosing solutions were prepared fresh daily. […] The pH of the dosing solution was adjusted to ~pH 5.5 by dropwise addition of 0.1 N NaOH in saline and volume adjusted by addition of saline in preparation for intraperitoneal (ip) dosing. […] Control treatments were always the vehicle solutions of the corresponding drugs.
The object recognition test was performed as described elsewhere (Ennaceur and Delacour [1988]; Akkerman et al. 2014). The apparatus consisted of a circular arena, 83 cm in diameter. Half of the 40-cm-high wall was made of gray polyvinyl chloride, the other half of transparent polyvinyl chloride. The light intensity was equal in the different parts of the apparatus, as fluorescent red tubes provided a constant illumination of about 20 lx on the floor of the apparatus. Two objects were placed in a symmetrical position at about 10 cm from the gray wall. Four different sets of objects were used. The different objects were (1) a cone consisting of a gray polyvinyl chloride base (maximal diameter 18 cm) with a collar on top made of brass (total height 16 cm), (2) a standard 1 L transparent glass bottle (diameter 10 cm, height 22 cm) filled with water, (3) a large metal cube (10.0 × 5.0 × 7.5 cm) with two holes (diameter 1.9 cm), and (4) a large aluminum cube with a tapering top (13.0 × 8.0 × 8.0 cm). The objects used in this study were carefully selected to be “novelty neutral,” that is to say the rats have no innate preference for one over the other. […]
A testing session consisted of two trials. […] The times spent in exploring each object during T1 and T2 were recorded manually using a personal computer. […]
The basic measure recorded was the time spent by each rat exploring an object during T1 and T2. […] The following variables were calculated: e1 = a1 + a2, e2 = a + b, and d2 = (b − a) / e2. […] Differences in exploration times between treatment conditions were analyzed using a t test or one-way ANOVA. […]

[4] = 0.3 mg/kg 2 h before T1 and 0.1 mg/kg 2 h before T2, po

T1 sequence (Q9Y5N1 whole entry): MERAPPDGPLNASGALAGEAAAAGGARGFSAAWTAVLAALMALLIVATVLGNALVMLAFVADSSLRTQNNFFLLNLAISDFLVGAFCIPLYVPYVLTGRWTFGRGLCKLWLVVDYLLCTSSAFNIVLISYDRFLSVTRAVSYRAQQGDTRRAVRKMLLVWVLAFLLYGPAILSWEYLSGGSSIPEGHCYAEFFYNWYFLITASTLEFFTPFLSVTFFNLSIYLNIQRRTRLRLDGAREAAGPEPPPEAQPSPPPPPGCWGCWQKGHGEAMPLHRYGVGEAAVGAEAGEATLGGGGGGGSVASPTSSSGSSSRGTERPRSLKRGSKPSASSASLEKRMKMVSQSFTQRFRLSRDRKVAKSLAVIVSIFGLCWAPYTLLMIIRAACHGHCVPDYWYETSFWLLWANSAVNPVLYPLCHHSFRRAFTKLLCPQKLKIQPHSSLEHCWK
T3 sequence (Q01959 whole entry): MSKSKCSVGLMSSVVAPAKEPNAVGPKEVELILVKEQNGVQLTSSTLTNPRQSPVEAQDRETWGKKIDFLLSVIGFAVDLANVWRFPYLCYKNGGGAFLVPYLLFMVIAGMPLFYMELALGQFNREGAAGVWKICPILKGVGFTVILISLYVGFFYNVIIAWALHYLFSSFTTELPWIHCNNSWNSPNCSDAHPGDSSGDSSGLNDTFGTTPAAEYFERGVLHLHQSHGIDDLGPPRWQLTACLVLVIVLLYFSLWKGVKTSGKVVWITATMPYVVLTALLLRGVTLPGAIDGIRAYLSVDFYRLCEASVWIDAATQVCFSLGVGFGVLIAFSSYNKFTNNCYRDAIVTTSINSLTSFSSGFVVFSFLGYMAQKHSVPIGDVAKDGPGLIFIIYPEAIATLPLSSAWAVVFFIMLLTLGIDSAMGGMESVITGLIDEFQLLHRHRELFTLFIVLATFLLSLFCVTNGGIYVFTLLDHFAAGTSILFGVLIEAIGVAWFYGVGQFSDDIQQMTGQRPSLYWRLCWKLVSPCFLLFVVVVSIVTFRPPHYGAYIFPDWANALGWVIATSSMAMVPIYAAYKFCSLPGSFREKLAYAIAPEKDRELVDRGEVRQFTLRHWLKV

CN1C(=O)c2c(nn(Cc3ccc(-c4cccc(F)n4)cc3)c2Nc2ccccc2)N2C1=N[C@@H]1CCC[C@@H]12 [ITI-214, (6aR,9aS)-2-(4-(6-fluoropyridin-2-yl)benzyl)-5-methyl-3-(phenylamino)-5,6a,7,8,9,9a-hexahydrocyclopenta-[4,5]imidazo[1,2-a]pyrazolo[4,3-e]pyrimidin-4-(2H)-one phosphate salt]
% Binding [1]: 40.90% | Ki (PDE1 (bovine brain)): 58 pM | % Binding (H3 (h), histamine): 32.54% | % Binding (B2 (H), bradykinin): 30.79% | % Binding [2]: 58.70% | Exploration time e1 (T1) [3, 4]: 30.43 (2.16) s | Exploration time e2 (T2) [3, 4]: 28.78 (1.26) s | effect on discrimination behavior (d2), combined sub-effective doses ([3]; 0.3 mg/kg 2 h before T1 plus 0.1 mg/kg 2 h before T2, different from chance and vehicle, p < 0.001): full increase in discrimination behavior
